Experimental data as given in ChEMBL document CHEMBL1136975, “Synthesis and activity of quinolinylmethyl P1' alpha-sulfone piperidine hydroxamate inhibitors of TACE” (Bioorg Med Chem Lett, 2009).

How the values were obtained:
[1] = target: 72 kDa type IV collagenase (Homo sapiens, UniProt P08253); assay: inhibition of human recombinant MMP2 catalytic domain
[2] = system: RAW264.7; assay: Inhibition of LPS-induced TNFalpha production in mouse RAW264.7 cells preincubated for 1 hrs before LPS challenge measured after 4 hrs by ELISA; assay type: functional, cell-based
[3] = target: Collagenase 3 (Homo sapiens, UniProt P45452); assay: inhibition of human recombinant MMP13 catalytic domain
[4] = target: Disintegrin and metalloproteinase domain-containing protein 17 (Homo sapiens, UniProt P78536); assay: Inhibition of human TACE catalytic domain expressed in CHO cells by FRET assay; assay type: cell-based
Sequence of Disintegrin and metalloproteinase domain-containing protein 17 (P78536 whole entry, the tested form may be a part): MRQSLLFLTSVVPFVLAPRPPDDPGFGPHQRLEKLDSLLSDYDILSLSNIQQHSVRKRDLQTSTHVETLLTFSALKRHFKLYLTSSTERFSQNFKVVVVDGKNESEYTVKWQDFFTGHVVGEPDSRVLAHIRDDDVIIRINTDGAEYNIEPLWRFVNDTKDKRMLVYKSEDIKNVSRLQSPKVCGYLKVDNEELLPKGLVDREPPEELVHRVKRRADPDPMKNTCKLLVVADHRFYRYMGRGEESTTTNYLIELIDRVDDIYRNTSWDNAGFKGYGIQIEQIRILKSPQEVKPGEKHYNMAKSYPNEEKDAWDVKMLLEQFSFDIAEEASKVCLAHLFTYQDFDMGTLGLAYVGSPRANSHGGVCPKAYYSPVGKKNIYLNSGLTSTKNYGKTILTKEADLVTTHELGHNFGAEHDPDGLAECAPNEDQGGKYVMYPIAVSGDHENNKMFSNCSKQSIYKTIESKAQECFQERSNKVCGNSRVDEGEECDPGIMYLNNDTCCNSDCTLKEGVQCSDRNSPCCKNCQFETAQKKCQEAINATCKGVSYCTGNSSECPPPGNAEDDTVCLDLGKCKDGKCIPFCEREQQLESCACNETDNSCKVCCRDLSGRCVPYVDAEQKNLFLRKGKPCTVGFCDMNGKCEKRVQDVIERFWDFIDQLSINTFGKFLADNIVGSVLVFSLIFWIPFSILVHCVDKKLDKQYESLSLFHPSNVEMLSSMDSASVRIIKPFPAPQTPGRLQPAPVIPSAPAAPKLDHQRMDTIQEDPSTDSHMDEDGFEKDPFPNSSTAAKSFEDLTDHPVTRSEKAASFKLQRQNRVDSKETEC

[5] = system: Blood; assay: Inhibition of LPS-induced TNFalpha production in human whole blood preincubated for 1 hrs before LPS challenge measured after 4 hrs by ELISA; assay type: functional, tissue-based
[6] = organism: Homo sapiens; assay: Selectivity ratio of IC50 for human recombinant MMP13 catalytic domain to IC50 for human TACE catalytic domain
[7] = organism: Homo sapiens; assay: Selectivity ratio of IC50 for human recombinant MMP2 catalytic domain to IC50 for human TACE catalytic domain
[8] = Selectivity for TACE over MMP13
[9] = target: Matrix metalloproteinase-9 (Homo sapiens, UniProt P14780); assay: inhibition of human recombinant MMP9 catalytic domain
Sequence of Matrix metalloproteinase-9 (P14780 whole entry, the tested form may be a part): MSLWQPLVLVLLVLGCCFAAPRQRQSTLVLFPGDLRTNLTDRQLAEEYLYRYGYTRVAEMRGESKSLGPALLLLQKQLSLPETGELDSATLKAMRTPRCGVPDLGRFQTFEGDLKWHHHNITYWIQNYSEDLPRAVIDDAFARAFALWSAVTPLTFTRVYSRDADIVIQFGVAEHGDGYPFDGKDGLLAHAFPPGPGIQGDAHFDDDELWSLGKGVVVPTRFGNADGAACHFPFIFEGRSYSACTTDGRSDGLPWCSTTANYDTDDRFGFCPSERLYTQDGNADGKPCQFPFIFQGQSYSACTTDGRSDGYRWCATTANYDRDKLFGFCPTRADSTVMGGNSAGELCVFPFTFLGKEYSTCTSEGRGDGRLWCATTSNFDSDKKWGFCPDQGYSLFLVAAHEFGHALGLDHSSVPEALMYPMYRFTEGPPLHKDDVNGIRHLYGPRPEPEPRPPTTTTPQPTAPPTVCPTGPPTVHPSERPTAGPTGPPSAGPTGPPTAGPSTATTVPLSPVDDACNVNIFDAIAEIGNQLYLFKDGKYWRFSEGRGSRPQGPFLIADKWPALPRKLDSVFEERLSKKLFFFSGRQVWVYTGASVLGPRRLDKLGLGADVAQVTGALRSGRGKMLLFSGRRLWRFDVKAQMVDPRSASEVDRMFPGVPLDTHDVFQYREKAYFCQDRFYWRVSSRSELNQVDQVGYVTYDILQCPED

[10] = Selectivity for TACE over MMP14
[11] = Selectivity for TACE over MMP1
[12] = Selectivity for TACE over MMP9
[13] = Selectivity for TACE over MMP2

Sequence of 72 kDa type IV collagenase (P08253 whole entry, the tested form may be a part): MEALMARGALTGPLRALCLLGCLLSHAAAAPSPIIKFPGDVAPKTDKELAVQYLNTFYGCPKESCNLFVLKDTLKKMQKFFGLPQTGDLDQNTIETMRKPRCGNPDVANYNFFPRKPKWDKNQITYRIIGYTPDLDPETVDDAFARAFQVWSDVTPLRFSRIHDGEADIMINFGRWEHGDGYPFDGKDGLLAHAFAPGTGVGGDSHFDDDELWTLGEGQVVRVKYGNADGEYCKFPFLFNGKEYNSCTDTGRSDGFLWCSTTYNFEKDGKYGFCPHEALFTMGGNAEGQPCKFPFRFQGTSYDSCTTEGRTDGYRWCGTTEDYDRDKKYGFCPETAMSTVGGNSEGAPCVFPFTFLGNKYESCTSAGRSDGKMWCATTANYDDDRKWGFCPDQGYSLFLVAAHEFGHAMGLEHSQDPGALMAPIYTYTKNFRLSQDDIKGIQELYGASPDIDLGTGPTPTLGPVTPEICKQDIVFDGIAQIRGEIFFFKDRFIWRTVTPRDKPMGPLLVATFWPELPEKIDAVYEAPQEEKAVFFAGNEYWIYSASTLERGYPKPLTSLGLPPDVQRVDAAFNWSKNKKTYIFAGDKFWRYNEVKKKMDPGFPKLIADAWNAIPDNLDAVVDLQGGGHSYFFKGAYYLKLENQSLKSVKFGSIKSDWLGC

SMILES	IC50 [1]	IC50 [2]	IC50 [3]	IC50 [4]	IC50 [5]	Ratio IC50 [6]	Ratio IC50 [7]	Selectivity ratio [8]	IC50 [9]	Selectivity ratio [10]	Selectivity ratio [11]	Selectivity ratio [12]	Selectivity ratio [13]
Cc1cc(COc2ccc(S(=O)(=O)C3(C(=O)NO)CCN(Cc4ccncc4)CC3)cc2)c2ccccc2n1	0.855 µM	0.378 µM	0.266 µM	0.009 µM	11 µM								
Cc1cc(COc2ccc(S(=O)(=O)C3(C(=O)NO)CCN(C(=O)C(C)C)CC3)cc2)c2ccccc2n1	1.24 µM	> 1 µM	0.415 µM	0.002 µM	14 µM	> 90	> 90						
CC#CCOc1ccc(S(=O)(=O)CC2(C(=O)NO)CCN(C(=O)OC(C)(C)C)CC2)cc1		0.62 µM			14 µM								
CCNC(=O)N1CCC(C(=O)NO)(S(=O)(=O)c2ccc(OCc3cc(C)nc4ccccc34)cc2)CC1	3.61 µM	0.24 µM	0.835 µM	0.002 µM	2.5 µM	> 90	> 90						
Cc1cc(COc2ccc(S(=O)(=O)C3(C(=O)NO)CCN(S(C)(=O)=O)CC3)cc2)c2ccccc2n1	1.74 µM	0.345 µM	0.393 µM	0.0012 µM	2.8 µM	> 90	> 90						
CC#CCOc1ccc(S(=O)(=O)CC2(C(=O)NO)CCNCC2)cc1	1.59 µM		1.9 µM	0.001 µM		> 1000	> 1000						
CC#CCOc1ccc(S(=O)(=O)C2(C(=O)NO)CCN(C(C)=O)CC2)cc1						< 10		< 5					
CC#CCOc1ccc(S(=O)(=O)C2(C(=O)NO)CCNCC2)cc1						< 10							
Cc1cc(COc2ccc(S(=O)(=O)C3(C(=O)NO)CCN(C(=O)c4ccncc4)CC3)cc2)c2ccccc2n1	1.09 µM	0.23 µM	0.349 µM	0.002 µM	1.9 µM	> 90	> 90						
Cc1cc(COc2ccc(S(=O)(=O)C3(C(=O)NO)CCN(C=O)CC3)cc2)c2ccccc2n1	1.4 µM	0.068 µM	0.44 µM	0.002 µM	1.3 µM	> 90	> 90		> 12 µM				
CC#CCOc1ccc(S(=O)(=O)CC2(C(=O)NO)CCN(C(=O)c3ccccc3)CC2)cc1		0.4 µM	0.059 µM		2.5 µM								
Cc1cc(COc2ccc(S(=O)(=O)C3(C(=O)NO)CCN(C)CC3)cc2)c2ccccc2n1	15.1 µM	0.125 µM	1.45 µM	0.011 µM	2.4 µM	> 90	> 90						
Cc1cc(COc2ccc(S(=O)(=O)C3(C(=O)NO)CCN(C(=O)c4ccccc4)CC3)cc2)c2ccccc2n1	0.516 µM	> 1 µM	0.204 µM	0.001 µM	28 µM	> 90	> 90						
CC(=O)N1CCC(C(=O)NO)(S(=O)(=O)c2ccc(OCc3cc(C)nc4ccccc34)cc2)CC1	6.96 µM	0.385 µM	1.34 µM	0.001 µM	1.5 µM	> 90	> 90						
CCN(CC)C(=O)N1CCC(C(=O)NO)(S(=O)(=O)c2ccc(OCc3cc(C)nc4ccccc34)cc2)CC1	0.096 µM	> 1 µM	0.057 µM	0.003 µM	> 50 µM								
CC#CCOc1ccc(S(=O)(=O)CC2(C(=O)NO)CCN(C(C)=O)CC2)cc1		0.49 µM		0.002 µM	8.7 µM			> 75		> 75	> 75	> 75	> 75
CC#CCOc1ccc(S(=O)(=O)C2(C(=O)NO)CCN(C(=O)OC(C)(C)C)CC2)cc1						< 10							
CC#CCOc1ccc(S(=O)(=O)C2(C(=O)NO)CCN(Cc3ccc(Cl)c(Cl)c3)CC2)cc1			0.072 µM	0.149 µM		< 10							
Cc1cc(COc2ccc(S(=O)(=O)C3(C(=O)NO)CCN(Cc4ccc(Cl)c(Cl)c4)CC3)cc2)c2ccccc2n1	0.145 µM	> 1 µM	0.08 µM	0.065 µM	> 50 µM								
Cc1cc(COc2ccc(S(=O)(=O)C3(C(=O)NO)CCNCC3)cc2)c2ccccc2n1	> 15 µM	0.334 µM	8.62 µM	0.033 µM	2.4 µM	> 90	> 90		> 12 µM				
CC#CCOc1ccc(S(=O)(=O)C2(C(=O)NO)CCN(C(=O)c3ccccc3)CC2)cc1						< 10							
Cc1cc(COc2ccc(S(=O)(=O)C3(C(=O)NO)CCN(S(=O)(=O)C(C)C)CC3)cc2)c2ccccc2n1	2.14 µM	> 1 µM	0.926 µM	0.01 µM	14 µM	> 90	> 90						
Cc1cc(COc2ccc(S(=O)(=O)C3(C(=O)NO)CCN(C(=O)OC(C)(C)C)CC3)cc2)c2ccccc2n1	2.67 µM	> 1 µM	1.11 µM	< 0.001 µM	> 50 µM	> 90	> 90						
